The text below walks through data of patent US11771738B2 (Zoetis Services LLC, priority 2018, dated 2023).

What all share (assay type): cell-based
Experiment [1] relates to third stage larvae of Haemonchus contortus. The experiment in a line: Haemonchus contortus, Larvae Stage 3 (HcL3) In Vitro Assay. Particulars: Haemonchus contortus, 96 h.
The subject of a further experiment is D. immitis L4 larvae. In words: Dirofilaria immitis, L4 Stage (DiL4) In Vitro Assay. Particulars: for minimal effective concentration: Dirofilaria immitis, 72 h, read-out: DiL4 MED, Minimum Effective Dose, D. immitis L4 larvae motility, in vitro; for DiMf/DiL4: larval stage selectivity, ratio of DiMf MED to DiL4 MED.
For experiment [2], the system named is microfilariae of Dirofilaria immitis. The experiment in a line: Dirofilaria immitis, Microfilaria (DiMf) In Vitro Assay. Particulars: Dirofilaria immitis, 72 h, read-out: DiMf MED, Minimum Effective Dose, D. immitis microfilariae motility, in vitro.
[3] abbreviates: read-out: HcL3 MED, Haemonchus contortus third stage larvae in vitro, class mark appended to the Ex # in Table 3.
[4] abbreviates: read-out: HcL3 MED, Minimum Effective Dose, H. contortus third stage larvae, approximately 96 hours.
The mark [5] stands for this setting: read-out: HcL3 MED, approximately 96 hours incubation, multiple-resistant field isolate.

Like-named read-outs stand apart in the source and are kept apart here.

Take `CC(C)C[C@H]1C(=O)O[C@H](Cc2ccc(Cc3ccnn3C)cc2)C(=O)N(C)[C@@H](CC(C)C)C(=O)O[C@H](C)C(=O)N(C)[C@@H](CC(C)C)C(=O)O[C@H](Cc2ccc(Cc3ccnn3C)cc2)C(=O)N(C)[C@@H](CC(C)C)C(=O)O[C@H](C)C(=O)N1C` [Example 3-24, (3S,6R,9S,12R,15S,18R,21S,24R)-3,9,15,21-tetraisobutyl-4,6,10,16,18,22-hexamethyl-12,24-bis(4-((1-methyl-1H-pyrazol-5-yl)methyl)benzyl)-1,7,13,19-tetraoxa-4,10,16,22-tetraazacyclotetracosan-2,5,8,11,14,17,20,23-octaone]: the minimal effective concentration in experiment [1] (setting [3]) was under 1 µM; in experiment [1] (setting [4]) it was 1 µM; in experiment [1] (setting [5]), at most 1 µM; with D. immitis L4 larvae it was 3e-05 µM; in experiment [2], 0.0001 µM. Also, the DiMf/DiL4 with D. immitis L4 larvae is recorded as 3.3.

Regarding `COc1ccc(Cc2ccc(C[C@H]3OC(=O)[C@H](CC(C)C)N(C)C(=O)[C@@H](C)OC(=O)[C@H](CC(C)C)N(C)C(=O)[C@@H](Cc4ccc(Cc5ccc(OC)nc5C)cc4)OC(=O)[C@H](CC(C)C)N(C)C(=O)[C@@H](C)OC(=O)[C@H](CC(C)C)N(C)C3=O)cc2)c(C)n1` [Example 3-121, (3S,6R,9S,12R,15S,18R,21S,24R)-3,9,15,21-tetraisobutyl-6,18-bis(4-((6-methoxy-2-methylpyridin-3-yl)methyl)benzyl)-4,10,12,16,22,24-hexamethyl-1,7,13,19-tetraoxa-4,10,16,22-tetraazacyclotetracosan-2,5,8,11,14,17,20,23-octaone], the minimal effective concentration in experiment [1] (setting [3]) was 1 to 3.3 µM; in experiment [1] (setting [4]) it was 1.8 µM; in the experiment on D. immitis L4 larvae, 5e-05 µM; in experiment [2] it was 0.003 µM. The DiMf/DiL4 in the experiment on D. immitis L4 larvae was 60.

For `COc1cncc(Cc2ccc(C[C@H]3OC(=O)[C@H](CC(C)C)N(C)C(=O)[C@@H](C)OC(=O)[C@H](CC(C)C)N(C)C(=O)[C@@H](Cc4ccc(Cc5cncc(OC)n5)cc4)OC(=O)[C@H](CC(C)C)N(C)C(=O)[C@@H](C)OC(=O)[C@H](CC(C)C)N(C)C3=O)cc2)n1` [Example 3-218, (3S,6R,9S,12R,15S,18R,21S,24R)-3,9,15,21-tetraisobutyl-6,18-bis(4-((6-methoxypyrazin-2-yl)methyl)benzyl)-4,10,12,16,22,24-hexamethyl-1,7,13,19-tetraoxa-4,10,16,22-tetraazacyclotetracosan-2,5,8,11,14,17,20,23-octaone], the values for the minimal effective concentration (in experiment [1] (setting [4]); in the experiment with D. immitis L4 larvae; in experiment [2]) were over 23 µM, 0.0008 µM and 0.01 µM, respectively. The DiMf/DiL4 in the experiment on D. immitis L4 larvae worked out at 12.5.

Regarding `COC(c1ccc(C[C@H]2OC(=O)[C@H](CC(C)C)N(C)C(=O)[C@@H](C)OC(=O)[C@H](CC(C)C)N(C)C(=O)[C@@H](Cc3ccc(C(OC)c4ccc(O)nc4)cc3)OC(=O)[C@H](CC(C)C)N(C)C(=O)[C@@H](C)OC(=O)[C@H](CC(C)C)N(C)C2=O)cc1)c1ccc(O)nc1` (stereo partly drawn) [Example 3-259, (3S,6R,9S,12R,15S,18R,21S,24R)-6,18-bis(4-((6-hydroxypyridin-3-yl)(methoxy)methyl)benzyl)-3,9,15,21-tetraisobutyl-4,10,12,16,22,24-hexamethyl-1,7,13,19-tetraoxa-4,10,16,22-tetraazacyclotetracosan-2,5,8,11,14,17,20,23-octaone], the minimal effective concentration in experiment [1] (setting [3]) was 1 to 3.3 µM; in experiment [1] (setting [4]) it was 3.3 µM; in the experiment with D. immitis L4 larvae, 0.0005 µM; in experiment [2], 0.01 µM. Besides, the DiMf/DiL4 in the experiment on D. immitis L4 larvae is recorded as 20.

In the case of `CC(C)C[C@H]1C(=O)O[C@H](Cc2ccc([C@H](O)c3sccc3Br)cc2)C(=O)N(C)[C@@H](CC(C)C)C(=O)O[C@H](C)C(=O)N(C)[C@@H](CC(C)C)C(=O)O[C@H](Cc2ccc([C@@H](O)c3sccc3Br)cc2)C(=O)N(C)[C@@H](CC(C)C)C(=O)O[C@H](C)C(=O)N1C` [Example 3-132, (3S,6R,9S,12R,15S,18R,21S,24R)-6-(4-((R)-(3-bromothiophen-2-yl)(hydroxy)methyl)benzyl)-18-(4-((S)-(3-bromothiophen-2-yl)(hydroxy)methyl)benzyl)-3,9,15,21-tetraisobutyl-4,10,12,16,22,24-hexamethyl-1,7,13,19-tetraoxa-4,10,16,22-tetraazacyclotetracosan-2,5,8,11,14,17,20,23-octaone], the minimal effective concentration in experiment [1] (setting [4]) is over 10 µM; in the experiment on D. immitis L4 larvae, 0.0004 µM; in experiment [2] it was 0.01 µM. In the experiment with D. immitis L4 larvae, the DiMf/DiL4 was determined as 25.

For the compound `Cc1nnsc1Cc1ccc(C[C@H]2OC(=O)[C@H](CC(C)C)N(C)C(=O)[C@@H](C)OC(=O)[C@H](CC(C)C)N(C)C(=O)[C@@H](Cc3ccc(Cc4snnc4C)cc3)OC(=O)[C@H](CC(C)C)N(C)C(=O)[C@@H](C)OC(=O)[C@H](CC(C)C)N(C)C2=O)cc1` [Example 3-120, (3S,6R,9S,12R,15S,18R,21S,24R)-3,9,15,21-tetraisobutyl-4,6,10,16,18,22-hexamethyl-12,24-bis(4-((4-methyl-1,2,3-thiadiazol-5-yl)methyl)benzyl)-1,7,13,19-tetraoxa-4,10,16,22-tetraazacyclotetracosan-2,5,8,11,14,17,20,23-octaone], the minimal effective concentration in experiment [1] (setting [3]) was under 1 µM; in experiment [1] (setting [4]) it was 1 µM; in experiment [1] (setting [5]) it was at most 1 µM; with D. immitis L4 larvae, 0.0001 µM; in experiment [2] it was 0.0004 µM. The DiMf/DiL4 in the experiment with D. immitis L4 larvae came out at 4.

For `COc1nccnc1Cc1ccc(C[C@H]2OC(=O)[C@H](CC(C)C)N(C)C(=O)[C@@H](C)OC(=O)[C@H](CC(C)C)N(C)C(=O)[C@@H](Cc3ccc(Cc4nccnc4OC)cc3)OC(=O)[C@H](CC(C)C)N(C)C(=O)[C@@H](C)OC(=O)[C@H](CC(C)C)N(C)C2=O)cc1` [Example 3-193, (3S,6R,9S,12R,15S,18R,21S,24R)-3,9,15,21-tetraisobutyl-6,18-bis(4-((3-methoxypyrazin-2-yl)methyl)benzyl)-4,10,12,16,22,24-hexamethyl-1,7,13,19-tetraoxa-4,10,16,22-tetraazacyclotetracosan-2,5,8,11,14,17,20,23-octaone], the minimal effective concentration in experiment [1] (setting [3]) was under 1 µM; in experiment [1] (setting [4]), 1 µM; in experiment [1] (setting [5]) it was at most 1 µM; with D. immitis L4 larvae, 0.0004 µM; in experiment [2], 0.002 µM. Further, in the experiment on D. immitis L4 larvae, the DiMf/DiL4 was 5.

For `COc1cc(C)c(Cc2ccc(C[C@H]3OC(=O)[C@H](CC(C)C)N(C)C(=O)[C@@H](C)OC(=O)[C@H](CC(C)C)N(C)C(=O)[C@@H](Cc4ccccc4)OC(=O)[C@H](CC(C)C)N(C)C(=O)[C@@H](C)OC(=O)[C@H](CC(C)C)N(C)C3=O)cc2)cn1` [Example 4-126, (3S,6R,9S,12R,15S,18R,21S,24R)-6-benzyl-3,9,15,21-tetraisobutyl-18-(4-((6-methoxy-4-methylpyridin-3-yl)methyl)benzyl)-4,10,12,16,22,24-hexamethyl-1,7,13,19-tetraoxa-4,10,16,22-tetraazacyclotetracosan-2,5,8,11,14,17,20,23-octaone], the minimal effective concentration in experiment [1] (read-out: HcL3 MED (symbol after Ex#), approximately 96 hours incubation, multiple-resistant field isolate) is 1 to 3.3 µM; in experiment [1] (setting [4]), 1.8 µM; in the experiment on D. immitis L4 larvae, 0.0002 µM; in experiment [2] it was 0.003 µM. The DiMf/DiL4 in the experiment with D. immitis L4 larvae was 15.
